Data taken from patent publication US20260256771A1, “GALUNISERTIB FOR USE IN THE TREATMENT OF ANDROGENIC ALOPECIA” (SAÚDE VIÁVEL, S.A., priority 2022, published 2026).

Experiments:
[1] = test system: C57BL/6 depilated male mice; test: Histology (hematoxylin-eosin) of dorsal skin: number of hair follicles; type: in vivo, mouse
Description: (§1) FIG. 8. Galunisertib increases anagenic hair follicle growth. a) Hematoxilin-eosin staining of transversal paraffin sections of the dorsal skin of mice treated with vehicle (control), galunisertib (10 μM and 100 μM) or minoxidil at days 0, 5, 7, 14, 16 and 18 of treatment. Scale bar, 500 μm. b) Number of hair follicles per field view and c) number of hair follicles per field view in the subcutaneous layer at different timepoints along the experiment. d) Ki67 immunostaining of longitudinal paraffin sections of the dorsal skin of mice treated with vehicle (control), galunisertib (10 μM and 100 μM) or minoxidil at days 5, 7 and 14. Scale bar, 200 μm. e) Number of Ki67-positive cells in the hair bulb at days 5, 7 and 14. N≥3 animals per timepoint per condition were analyzed, and N≥4 field views were quantified per animal. Values are mean±SD. *p<0.05; **p<0.01 by Student's t-test.
For histology and immunohistochemistry, dorsal skin from the depilated region is collected from mice at different timepoints across the experiment (days 0, 5, 7, 14 and 18) and fixed in 10% buffered formalin, imbedded in paraffin and sectioned along the transversal and longitudinal plan of the hair follicles (3 μm sections). Standard protocol is used for hematoxylin and eosin staining. For immunohistochemistry, slides are deparaffinized, then antigen retrieval is performed using HistoVT One (#06380-05, Nacalai Tesque Inc.) for 40 min in a steamer, following 20 min of cooling at room temperature (RT). After washing with TBS-0.01% Tween (TBS-T), peroxidase is blocked using Bloxall (#SP-6000, Vector Laboratories Inc.) for 10 min. Slides are then washed with TBS-T, and blocked using 2.5% Normal Horse Serum (#MP7500, Impress universal kit, Vector Laboratories Inc.) for 20 min. Following this, slides are incubated with rabbit anti-Ki67 antibody (D3B5) in 0.25% Normal Horse Serum overnight at 4° C. Next day, after thoroughly washing with TBS-T, the slides are incubated with a secondary anti-mouse/anti-rabbit antibody (#MP7500, Impress universal kit, Vector Laboratories Inc.) for 45 min RT. Impact DAB (#SK-4105, Vector Laboratories Inc.) are used to develop the slides, followed by dehydration and mounting with Entellan (#1.07961.0100, Millipore) following standard procedures.

[2] = test system: Ki67 proliferation marker; test: Ki67 immunohistochemistry of mouse dorsal skin (hair germ); type: in vivo
Description: as §1
For histology and immunohistochemistry, dorsal skin from the depilated region is collected from mice at different timepoints across the experiment (days 0, 5, 7, 14 and 18) and fixed in 10% buffered formalin, imbedded in paraffin and sectioned along the transversal and longitudinal plan of the hair follicles (3 μm sections). Standard protocol is used for hematoxylin and eosin staining. […]

β-catenin = test: Immunohistochemistry of cryo-sectioned HFOCs: β-catenin; type: cell-based, human; conditions: DP adjacent epithelial compartment; Galunisertib 48 h vs untreated
Description: (§2) Hair growth percentages is normalized to day 0.
(§3) FIG. 6. Galunisertib improves the WNT signaling in the bulb epithelial compartment. a) Representative IHC images of tissue sections of HFOCs with and without Galunisertib and stained for LEF1 (red) and β-catenin (green). Nuclei were counterstained with DAPI (blue). Scale bar, 100 μm. b,e) Adjusted intensity levels of LEF1 and β-catenin per DP and HB (bulb epithelium) areas, as measured in tissue sections from HFOCs with and without Galunisertib. All values are mean±SD of HFOCs established from n=4 donors (n>8 HFs per condition). ns p≥0.05, *p≤0.05 by unpaired t-test.
(§4) For immunohistochemistry, 2-day HFOCs are used for immunohistochemistry analysis. Briefly, HFs were embedded on a drop of OCT and stored at −80° C. 8 μm cryosections are air-dried and fixed in 4% PFA (for TGFβ2, cleavage Caspase 3, p-SMAD2 and KI67 immunostainings) or cold acetone (for LEF1 and β-catenin immunostaining). Following 2×5 min rinse with PBS, microsections are permeabilized 2× for 10 min with PBS+0.3% Triton X 100 (PBS-T) and then blocked with PBS+10% fetal bovine serum (FBS) for 1 hour at room temperature. Antibodies are diluted in PBS-T+1% FBS and incubation done overnight at 4° C. […]

cleaved Caspase 3 = test: Immunohistochemistry of cryo-sectioned HFOCs: cleaved Caspase 3; type: cell-based, human; conditions: mainly detected in the DP; HFOCs treated with Galunisertib for 48 h vs untreated
Description: as §2
FIG. 5. Galunisertib improves cell proliferation and the WNT signaling in the bulb epithelial compartment. a) Representative IHC images of tissue sections of HFOCs untreated and treated with Galunisertib and stained for KI67 and cleaved caspase 3. Nuclei were counterstained with DAPI. Scale bar, 100 μm. b,c) Adjusted intensity levels of KI67 and cleaved caspase 3 per DP and HB (bulb epithelium) areas, respectively, as measured in tissue sections from HFOCs with and without Galunisertib. All values are mean±SD of HFOCs established from n=8 donors (n>16 HFs per condition). ns p≥0.05, *p≤0.05 by unpaired t-test.
as §4

[3] = Mass spectrometry of skin biopsies; type: in vivo, mouse; conditions: skin retrieved at day 14, N=3, mean±SD
Description: For mass spectrometry of skin biopsies, dorsal skin of mice under 10 μM and 100 μM galunisertib topical treatment for 14 days is collected after anesthesia (Ketamine 150 mg/kg+Medetomidine 2 mg/kg) and perfusion with PBS. Skin samples are snap frozen and stored at −80° C. until being sent for mass spec analysis by Cyprotex. Skin samples from N=3 animals per condition are homogenized 1:4 in mouse plasma, then quantified against a mouse plasma calibration curve. Analytical runs meeting calibration standard and QC acceptance criteria.

LEF1 = test: Immunohistochemistry of cryo-sectioned HFOCs: LEF1; type: cell-based, human; conditions: Galunisertib 48 h vs untreated
Description: as §2, §3, §4

Cc1cccc(-c2nn3c(c2-c2ccnc4ccc(C(N)=O)cc24)CCC3)n1 [Galunisertib]
number of HFs within the subcutaneous layer (anagenic HFs) ([1]; day 5, vs vehicle): increased number of HFs
number of anagenic HFs ([1]; day 5 to day 14): increased number of anagenic HFs
catagen onset in mice ([1]; similar timing in all conditions): not to be delayed
anagenic hair growth (overall) ([1]; similarly to minoxidil, but more efficiently): improves anagenic hair growth
number of HF (per field view) ([1]; transversal HF sections, day 7 to day 14, vs control vehicle treatment): significant increase in the number of HF
persistence of the increased number of anagenic HFs ([1]; until day 14): perdures until day 14
Ki67-positive cells in the hair germ, comparison with minoxidil ([2]; day 7): more effective than minoxidil
number of Ki67-positive cells in the hair germ ([2]; days 5, 7 and 14 post-treatment, vs vehicle treatment): increased number of Ki67-positive cells
β-catenin intensity levels (β-catenin): significantly enhances
fluorescence intensity levels of cleaved Caspase 3 (cleaved Caspase 3): do not show significant changes
concentration of compound in skin biopsies ([3]; topical 10 μM galunisertib): 1.6 ± 0.7 µM
concentration of compound in skin biopsies ([3]; topical 100 μM galunisertib): 9.6 ± 0.6 µM
LEF1 levels in the bulb epithelium (LEF1; bulb epithelium): increased levels
LEF1 levels in the DP (LEF1; dermal papilla): not significantly upregulated
